Laboratory results taken from patent US8273773B2 (priority 2008, dated 2012).
pIC50: −log10 of the molar value. Like-named read-outs stand apart in the source and are kept apart here.

Target: T1, HCV polymerase (NS5B570n-Con1) (Hepatitis C virus genotype 1b, UniProt Q9WMX2)
T1 construct: contains a 21 amino acid deletion at the C-terminus relative to the full-length HCV polymerase; 6-histidine (N); made in house; host or cells: E. coli strain BL21(DE) pLysS (pET17b)
Test: biochemical
Parameters: species or system HCV Con1 strain

[1] = IC50 HCV NS5B RNA Polymerase Assay (values with asterisk), values with asterisk: cIRES RNA template, 3 nM NS5B570n-Con1
[2] = IC50 HCV NS5B RNA Polymerase Assay, values without asterisk, 20 nM NS5B570n-Con1 enzyme, 20 nM cIRES RNA template
[3] = read-out: IC50 HCV NS5B RNA Polymerase Assay, values without asterisk, 20 nM NS5B570n-Con1 enzyme, 20 nM cIRES RNA template
[4] = values without asterisk, 20 nM NS5B570n-Con1 enzyme, 20 nM cIRES RNA template, read-out: IC50 HCV NS5B RNA Polymerase Assay
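Further: recombinant His-tagged enzyme from E. coli, radiolabeled nucleotide incorporation into acid-insoluble RNA read by scintillation after filtration, no-enzyme background subtracted, activity relative to positive control.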

Row | Structure (SMILES) | pIC50 [2] | further results
1 | COc1c(/C=C/c2ccc(NS(=O)(=O)CCCN3CCCC3)cc2)cc(-c2cc(F)c[nH]c2=O)cc1C(C)(C)C [I-230, 3-Pyrrolidin-1-yl-propane-1-sulfonic acid (4-{(E)-2-[3-tert-butyl-5-(5-fluoro-2-oxo-1,2-dihydro-pyridin-3-yl)-2-methoxy-phenyl]-vinyl}-phenyl)-amide] | – | pIC50 [1]: 8.22
2 | COc1c(C(=O)NC2CCC(NS(C)(=O)=O)CC2)cc(-c2ccc[nH]c2=O)cc1C(C)(C)C (centres unmarked) [I-260, 3-tert-Butyl-N-(4-methanesulfonylamino-cyclohexyl)-2-methoxy-5-(2-oxo-1,2-dihydro-pyridin-3-yl)-benzamide] | 7.46 | –
3 | COc1c(/C=C/c2ccc(N)nn2)cc(-c2cc(F)c[nH]c2=O)cc1C(C)(C)C [I-183] | – | pIC50 [3]: 8.15
4 | COc1c(/C=C/c2ccc(NS(=O)(=O)C3CC3)cc2)cc(-c2cc(F)c[nH]c2=O)cc1C(C)(C)C [I-155, Cyclopropanesulfonic acid (4-{(E)-2-[3-tert-butyl-5-(5-fluoro-2-oxo-1,2-dihydro-pyridin-3-yl)-2-methoxy-phenyl]-vinyl}-phenyl)-amide] | 8.52 | –
5 | COc1c(/C=C/c2ccc(N)nc2)cc(-c2cc(F)c[nH]c2=O)cc1C(C)(C)C [I-174] | – | pIC50 [3]: 7.92
6 | COc1c(/C=C/c2ccc(NS(=O)(=O)CC(F)(F)F)cc2)cc(-c2cc(F)c[nH]c2=O)cc1C(C)(C)C [I-152] | 7.80 | –
7 | COCc1cc(NS(C)(=O)=O)ccc1/C=C/c1cc(-c2ccc[nH]c2=O)cc(C(C)(C)C)c1OC [I-206, N-(4-{E-2-[3-tert-Butyl-2-methoxy-5-(2-oxo-1,2-dihydro-pyridin-3-yl)-phenyl]-vinyl}-3-methoxymethyl-phenyl)-methanesulfonamide] | – | pIC50 [1]: 8.70
8 | COc1c(NC(=O)c2ccc(NCC(F)(F)F)nn2)cc(-c2ccc[nH]c2=O)cc1C(C)(C)C [I-248, 6-(2,2,2-Trifluoro-ethylamino)-pyridazine-3-carboxylic acid [3-tert-butyl-2-methoxy-5-(2-oxo-1,2-dihydro-pyridin-3-yl)-phenyl]-amide] | 7.72 | –
9 | COc1cc(C(=O)O)ccc1[N+](=O)[O-] [I-130] | – | pIC50 [4]: 8.52
10 | COc1c(NC(=O)c2ccc(NS(C)(=O)=O)cc2F)cc(-c2ccc[nH]c2=O)cc1C(C)(C)C [I-281] | 8.15 | –
11 | COc1c(C(=O)Nc2ccc(N(C)C)cc2)cc(-c2ccc[nH]c2=O)cc1C(C)(C)C [I-41] | 5.82 | –
12 | CCOc1c(/C=C/c2ccc(NS(C)(=O)=O)cc2)cc(-c2ccc[nH]c2=O)cc1C(C)(C)C [I-249] | – | pIC50 [1]: 7.96
13 | COc1c(/C=C(/CO)c2ccc(NS(C)(=O)=O)cc2)cc(-c2ccc[nH]c2=O)cc1C(C)(C)C [I-145] | 7.28 | –
14 | COC(=O)c1cc(NS(C)(=O)=O)ccc1CCc1cc(-c2cc(F)c[nH]c2=O)cc(C(C)(C)C)c1OC [I-189] | – | pIC50 [1]: 9.00
15 | COc1c(/C=C/c2ccc(NS(C)(=O)=O)cc2C(=O)N(C)CCN(C)C)cc(-c2cc(F)c[nH]c2=O)cc1C(C)(C)C [I-207] | – | pIC50 [1]: 8.40
16 | COc1c(CCc2ccc(NS(C)(=O)=O)cc2C(=O)O)cc(-c2cc(F)c[nH]c2=O)cc1C(C)(C)C [I-190, 2-{2-[3-tert-Butyl-5-(5-fluoro-2-oxo-1,2-dihydro-pyridin-3-yl)-2-methoxy-phenyl]-ethyl}-5-methanesulfonylamino-benzoic acid] | – | pIC50 [1]: 9.00
17 | COc1ccc(-c2cc(/C=C/c3ccc(NS(C)(=O)=O)cc3C(=O)O)c(OC)c(C(C)(C)C)c2)c(=O)[nH]1 [I-211, 2-{(E)-2-[3-tert-Butyl-2-methoxy-5-(6-methoxy-2-oxo-1,2-dihydro-pyridin-3-yl)-phenyl]-vinyl}-5-methanesulfonylamino-benzoic acid] | – | pIC50 [1]: 8.40
18 | COc1c(/C=C/c2ccc(NS(=O)(=O)CCCN3CCOCC3)cc2)cc(-c2cc(F)c[nH]c2=O)cc1C(C)(C)C [I-231, 3-Morpholin-4-yl-propane-1-sulfonic acid (4-{(E)-2-[3-tert-butyl-5-(5-fluoro-2-oxo-1,2-dihydro-pyridin-3-yl)-2-methoxy-phenyl]-vinyl}-phenyl)-amide] | – | pIC50 [1]: 8.40
19 | COc1c(/C=C/c2ccncc2C#N)cc(-c2ccc[nH]c2=O)cc1C(C)(C)C [I-245, 4-{(L)-2-[3-tert-Butyl-2-methoxy-5-(2-oxo-1,2-dihydro-pyridin-3-yl)-phenyl]-vinyl}-nicotinonitrile] | – | pIC50 [1]: 9.00

Row | Structure (SMILES) | pIC50 [2] | further results
20 | COc1c(/C=C/c2ccc(NS(C)(=O)=O)nn2)cc(-c2ccc[nH]c2=O)cc1C(C)(C)C [I-182] | – | pIC50 [3]: 8.05
21 | COc1c(CC(C(N)=O)c2ccc(NS(C)(=O)=O)cc2)cc(-c2ccc[nH]c2=O)cc1C(C)(C)C (centres unmarked) [I-178] | 7.82 | –
22 | COc1c(C(=O)NCc2ccncc2)cc(-c2ccc[nH]c2=O)cc1C(C)(C)C [I-38] | 6.03 | –
23 | COc1c(C(=O)NCC(C)c2ccccc2)cc(-c2ccc[nH]c2=O)cc1C(C)(C)C (centres unmarked) [I-35] | 5.91 | –
24 | COc1c(C(=O)NC2CCC(N(C)C)CC2)cc(-c2ccc[nH]c2=O)cc1C(C)(C)C (centres unmarked) [I-92] | 5.77 | –
25 | COc1c(/C=C/c2ccc(N)nc2)cc(-c2ccc[nH]c2=O)cc1C(C)(C)C [I-171] | 8.40 | –
26 | COc1c(C(=O)Nc2cccc(CO)c2)cc(-c2ccc[nH]c2=O)cc1C(C)(C)C [I-97] | 6.42 | –
27 | CC(C)(C)c1cc(CCc2ccc(NS(C)(=O)=O)cc2C#N)c(O)c(-c2ccc[nH]c2=O)c1 [I-216, N-(4-{2-[5-tert-Butyl-2-hydroxy-3-(2-oxo-1,2-dihydro-pyridin-3-yl)-phenyl]ethyl}-3-cyano-phenyl)-methanesulfonamide] | 8.30 | –
28 | COc1c(NC(=O)c2ccc(NS(C)(=O)=O)cc2C)cc(-c2ccc[nH]c2=O)cc1C(C)(C)C [I-282] | 7.89 | –
29 | COc1c(NC(=O)c2ccc(N)cn2)cc(-c2ccc[nH]c2=O)cc1C(C)(C)C [I-283] | 8.05 | –
30 | COc1c(CC(C#N)c2ccc(NS(C)(=O)=O)cc2)cc(-c2ccc[nH]c2=O)cc1C(C)(C)C (centres unmarked) [I-177, N-(4-{2-[3-tert-Butyl-2-methoxy-5-(2-oxo-1,2-dihydro-pyridin-3-yl)-phenyl]-1-cyano-ethyl}-phenyl)-methanesulfonamide] | 8.10 | –
31 | O=C(O)c1ccc([N+](=O)[O-])cn1 [I-136] | – | pIC50 [4]: 8.30
32 | COc1c(NC(=O)c2ccc(NC3CC3)nc2)cc(-c2ccc[nH]c2=O)cc1C(C)(C)C [I-255, N-[3-tert-Butyl-2-methoxy-5-(2-oxo-1,2-dihydro-pyridin-3-yl)-phenyl]-6-cyclopropylamino-nicotinamide] | 7.15 | –
33 | COc1c(/C=C/c2ccc(NS(=O)(=O)C(F)(F)F)cc2)cc(-c2cc(F)c[nH]c2=O)cc1C(C)(C)C [I-154] | – | pIC50 [3]: 8.00
34 | COc1c(/C=C/c2ccc(NS(C)(=O)=O)cc2)cc(-c2ccc(CC#N)[nH]c2=O)cc1C(C)(C)C [I-224, N-(4-{(E)-2-[3-tert-Butyl-5-(6-cyanomethyl-2-oxo-1,2-dihydro-pyridin-3-yl)-2-methoxy-phenyl]-vinyl}-phenyl)-methanesulfonamide] | – | pIC50 [1]: 8.40
35 | COc1c(/C=C/c2ccc(NS(=O)(=O)CC3CC3)cc2)cc(-c2cc(F)c[nH]c2=O)cc1C(C)(C)C [I-153] | 8.10 | –
36 | COC(=O)c1cc(NS(C)(=O)=O)ccc1/C=C/c1cc(-c2ccc[nH]c2=O)cc(C(C)(C)C)c1 [I-158] | 7.72 | –
37 | COc1c(/C=C/c2ccc(NS(C)(=O)=O)cn2)cc(-c2cc(Cl)c[nH]c2=O)cc1C(C)(C)C [I-261] | – | pIC50 [1]: 8.52
38 | C/C(=C\c1cc(C(C)(C)C)cc(-c2ccc[nH]c2=O)c1O)c1ccc(NS(C)(=O)=O)cc1 [I-143] | 6.51 | –
